From patent EP0456257A1, “Silver halide color photographic material” (FUJI PHOTO FILM CO., LTD., priority 1990, dated 1991)

Experiment: Spectral absorption of yellow-colored coupler in methanol
Assay type: physicochemical
Description: The melting point of the compound was 269 to 272" C (decomposition). The structure of the compound was confirmed by H-NMR spectrum, mass spectrum and elementary analysis.
75 ml of methyl cellosolve and 26 ml of water were added to 10.1 g of Compound b (prepared as in Synthesis Example 1) and 10.7 g of sodium acetate. The diazonium solution was then added to the system with stirring under cooling with ice. After the dropwise addition was completed, the system was further stirred for 1 hour under ice-cooling and then for 2 hours at room temperature. The resulting crystal was filtered off. The crystal was then dispersed in 200 ml of methanol. A solution of 2.2 g of sodium hydroxide in 10 ml of water was added dropwise to the dispersion. The material was stirred for 3 hours. The system was neutralized with concentrated hydrochloric acid. The resulting crystal was washed with water and then with methanol, and then dried. The resulting crude crystal was purified with heat methanol in the same manner as in Synthesis Example 1 to obtain 14.8 g of Exemplary Coupler (YC-3). The melting point of the compound was 246 to 251 ° C (decomposition). The structure of the compound was confirmed by 'H-NMR spectrum, mass spectrum and elementary analysis.
13.0 g of Compound g prepared by the synthesis method as described in U.S. Patent 4,138,258 was dissolved in 40 ml of N,N-dimethylformamide. […]

Question: With `CCCCCCCCC(CCCCCC)COCCCNC(=O)c1cc(OCCOc2ccc(N=Nc3c(C)c(C#N)c(=O)n(-c4ccccc4C(=O)O)c3O)cc2)c2ccccc2c1O` (centres unmarked) [YC-30] as the compound, how does the maximum absorption wavelength read?
Answer: 458.2 nm

Question: What about the molecular extinction coefficient of the same compound?
Answer: 42,800
